Literature values, collected in patent US9095515B2, “Ezetimibe compositions” (Sanovel Ilac Sanayi Ve Ticaret Anonim Sirketi, priority 2009, dated 2015).

Details: reported

SMILES: O=C1[C@H](CC[C@H](O)c2ccc(F)cc2)[C@@H](c2ccc(O)cc2)N1c1ccc(F)cc1 [Ezetimibe, (3R,4S)-1-(4-fluorophenyl)-3-[(3S)-3-(4-fluorophenyl)-3-hydroxypropyl]-4-(4-hydroxyphenyl)azetidin-2-one]
- solubility in water: practically insoluble
